Reference: patent US20200008825A1, “SUSTAINED INTRATONSILLAR DRUG DELIVERY WITH NEEDLE ARRAY” (SOUTHERN RESEARCH INSTITUTE, priority 2017, published 2020)

Test system: CD3 positive T-cells in rabbit tonsils
Test: percentage of CD3 positive T-cells in rabbit tonsils injected with mometasone versus control (FIG. 11)
Assay type: in vivo
Text: FIG. 11 includes a graph illustrating a percentage of cluster-of-differentiation-3 (CD3) T-cell co-receptors in a rabbit when treated with mometasone versus a control. Referring now to FIG. 11, a graph is shown illustrating a percentage of cluster-of-differentiation-3 (CD3) T-cell co-receptors in a rabbit when treated with mometasone versus a control. In immunology, the CD3 T-cell co-receptor helps to activate both the cytotoxic T-Cell (CD8+ naive T cells) and also T helper cells (CD4+ naive T cells). CD3 consists of a protein complex and is composed of four distinct chains.

With C[C@@H]1C[C@H]2[C@@H]3CCC4=CC(=O)C=C[C@]4(C)[C@@]3(Cl)[C@@H](O)C[C@]2(C)[C@@]1(O)C(=O)CCl [mometasone] the “CD3 positive T-cells (percentage)” value was “significantly lower”.
